Assay results as given in a melting point compilation (Tetko et al.; mined from patent text by program, amines drawn as free bases though some values may be those of a salt).

melting point [°C] | Compound
106 to 107 | OCCc1nccn1CCCc1ccc(OCc2coc(/C=C/c3c(F)cccc3F)n2)cc1
38 to 39 | Fc1ccc(NCc2ccccc2)cc1
138 to 140 | CCCCN1CCN(Cc2ccc(COc3cccc4c3CN(C3CCC(=O)NC3=O)C4=O)cc2)CC1=O (stereo not drawn)
63 to 65 | C[C@H](CSC(=O)c1ccccc1)C(=O)O
240 to 241 | CCOC(=O)c1cn(C2CC2)c2cc(F)c(F)c(N)c2c1=O
251 | Cn1ncc2c(C(F)F)cc(-c3ccc(N)c(C#N)c3)nc21
258 to 260 | COc1cccc(C2=Nc3ccc(N4CCCC4)cc3C(=O)C2)c1OC
75 to 78 | O=C(c1cccc(C(F)(F)F)c1)c1cc2cccc(Br)c2o1
69 to 71 | COc1cccc(OC)c1Cl
87 to 92 | CCS(=O)(=O)Nc1cccc(SCc2ccccc2)n1
280 to 282 | Cn1nnnc1-c1cnc2ccccn2c1=O
138 to 141 | O=Cc1ccc(N(c2ccccc2)c2ccc3c4c(cccc24)CC3)cc1
35.5 to 36 | Nc1cccc(C(F)(F)C(F)(F)C(F)(F)C(F)(F)C(F)(F)C(F)(F)C(F)(F)C(F)(F)F)c1
153 to 156 | CC1OC(=O)C(c2ccccc2)OC1=O (stereo not drawn)
70 to 72 | CCSc1cn(C(C)C(=O)N(C)C)nc1-c1ccccc1 (stereo not drawn)
180 to 181 | COc1ccc(OC)c(-c2cn(N=Cc3ccccc3)c(N)n2)c1
225 to 226 | CC(=O)N1CCC(CNCc2ccc(C=CC(=O)Nc3ccc(-c4ccc(Cl)cc4)cc3)cc2)CC1
56 to 58 | CCCCCc1ccc(-c2c(C(C)C)cc(-c3ccccc3)c(CO)c2C(C)C)nc1
187 to 189 | COC(=O)c1cccc(C(=O)c2[nH]c3cc(Cl)ccc3c2N)c1
76 to 77 | COc1cccc(OCC(=O)c2cc(OCc3ccccc3)ccc2OC)c1
219 to 221 | N#CC(=Cc1ccc2[nH]ccc2c1)S(=O)(=O)c1ccc([N+](=O)[O-])cc1
105 to 106 | Nc1ccc(Cc2nc3ccccc3o2)cc1
152 to 154 | CC(=O)c1ccc(-c2ccc(F)cc2)c(O)c1
77 | C=CCOCCCCOc1ccc2c(c1)Cc1cc(C(C)=O)ccc1-2
220 | C#CCNC(=O)N1c2ccccc2-c2noc3c2C1CCC3 (stereo not drawn)
> 260 | CCOC(=O)c1cnc2ccc(C(F)(F)F)cc2c1O

melting point [°C] | Compound
196 to 197 | O=C(O)CCc1oc(=S)[nH]c1-c1ccc(Cl)cc1
100 to 101 | COC1CC(OCc2ccccc2)C(OS(=O)(=O)c2ccc(C)cc2)C(CO)O1 (stereo not drawn)
122 to 124 | COc1ccc([N+](=O)[O-])c(N(C)C(=O)OC(C)(C)C)c1
204 to 205 | CC1=Cc2cccc(S(N)(=O)=O)c2OS1(=O)=O
154 to 155 | O=C(O)CS(=O)(=O)CCCCCCn1nc(-c2ccccc2)c(-c2ccccc2)c1-c1ccccc1
59 | O=C(O)c1cnc(C(F)(F)F)nc1C(F)(F)F
190 to 193 | O=C(Nc1ccc2nc(CN3CCCC3)ccc2c1)c1ccc(-c2ccc(F)cc2)cc1
199 to 201 | CC(C)(C)NCC(O)COc1ccccc1C#Cc1ccc(C(N)=O)cc1 (stereo not drawn)
162 to 164 | O=C(O)C=C(c1ccccc1)c1ccccc1
170 | Nc1ccc(Oc2ccc(Oc3ccc(Oc4ccc(Oc5ccc(N)cc5)cc4)cc3)cc2)cc1
112 to 113 | Cc1cccc(Nc2cc(Nc3cccc(OCC(=O)N(CCO)CCO)c3)ncn2)c1
114 to 115 | CCCCCCC(=O)C=Cc1ccc(O)c(O)c1
86 to 87 | CCC1CC(=O)C(C(=O)NS(=O)(=O)c2ccc(C)cc2)C(=O)C1 (stereo not drawn)
63 to 65 | COc1ccccc1CN1CCN(CCN2CCC(O)(c3ccccc3)CC2)C(c2ccccc2)C1 (stereo not drawn)
119 to 121 | NS(=O)(=O)NC[C@H]1COc2cc(Cl)c(Cl)cc2O1
167 to 169 | CCn1c(CO)nc(C(C)C)c1Sc1cc(C#N)cc(C#N)c1
294 to 296 | O=C(O)c1ccc(-c2nc3ccccc3s2)cc1
80 to 82 | O=C(CCc1ccc(O)cc1)OCc1ccc([N+](=O)[O-])cc1
91 to 92 | COC(=O)c1ccc(C#CC(O)c2cc(C(C)(C)C)c(OCOCC[Si](C)(C)C)c(C(C)(C)C)c2)cc1 (stereo not drawn)
120 to 125 | NC(=O)C(CCc1ccccc1)NC(=O)c1ccc2[nH]c(-c3ccccc3)c(-c3ccccc3)c2c1 (stereo not drawn)
113 to 115 | COC(=O)CCC(=O)c1ccc(Cl)c(S(N)(=O)=O)c1
192 to 195 | O=C(Nc1ccc(C(=O)N2CCc3sc(Cc4c[nH]cn4)nc3-c3ccccc32)cc1)c1ccccc1-c1ccccc1
188 to 189 | CN1C(=O)C(NC(=O)Nc2ccccc2)N(C)C1=O (stereo not drawn)
89 to 90 | O=C(NCCCc1ccccc1)NCc1ccccn1
235 to 237 | Cn1ccc2cc(N3Cc4ccc(Br)cc4C3=O)ccc21
100 | Cc1cnc2nc(C(F)(F)F)n(C)c2c1

melting point [°C] | Compound
82 to 84 | Cc1cc(CCCCCOc2ccc(C3NCCS3)cc2)on1 (stereo not drawn)
147 to 148 | CC(=O)NC(Cc1c[nH]c2ccccc12)C(=O)OC(c1ccccc1)c1ccccc1 (stereo not drawn)
65 to 66 | CCOC(=O)c1cc2c(nc1C(=O)OCC)CCSC2
> 300 | Oc1ncnc2[nH]c(-c3ccccc3)cc12
105 to 108 | CCCCCCC1=CC(O)(C(Br)Br)N(Cc2ccccc2)C1=O (stereo not drawn)
203 to 204 | Cc1cccc(C(=O)Nc2cc(-c3c(-c4ccc(F)c(C)c4)nc4cccnn34)ccn2)c1
202 to 203 | O=C(O)CCC(=O)c1cc2c(s1)CCc1ccccc1C2
252 to 255 | CNC1CCN(c2c(F)cc3c(=O)c(C(=O)O)cn(C4COC4)c3c2F)C1 (stereo not drawn)
218 to 219 | Brc1ccc(-n2c(-c3ccccc3)ccc2-c2ccccc2)cc1
101 to 102 | FC(F)Oc1ccc(C=Cc2nc(CNc3ccc(CCCCn4ccnn4)cc3)co2)cc1
160 to 161 | C=Cn1cc(C(=O)O)c(=O)c2cc(F)c(N3CCC(NC)C3)nc21 (stereo not drawn)
176 to 177 | N#Cc1ccc2ccc3ccccc3c(=O)c2c1
240 to 243 | Cc1nc2cc(NC(=O)Nc3ccc(C(F)(F)F)cc3)ccc2o1
88 to 90 | CCC(=O)n1c(=O)oc2ccccc21
76 to 79 | CCCN(CCC)c1c(CC)nn2c(-c3ccc(OC)cc3C)cccc12
30 | CC(N)c1c[nH]c(-c2ccccc2)n1 (stereo not drawn)
124 to 126 | CC(=O)N1CCc2cc(CC(C)Br)ccc21 (stereo not drawn)
125 to 127 | CN(C1CCN(Cc2cnc3ccccc3c2)CC1)S(=O)(=O)c1ccc(Nc2nccc(Nc3ccc(F)cc3)n2)cc1
127 to 129 | Cc1ccc2c3c(ccc2n1)OC[C@H](CNC[C@H]1CCc2c(c4cc(F)ccc4n2C)C1)O3
91 to 92.5 | O=CC=C[C@@H]1O[C@H]1C#CC#CC#Cc1ccccc1 (relative stereo)
131 | Cc1cccc(C)c1OCC(=O)NC(Cc1ccccc1)C(O)CC(N)Cc1ccccc1 (stereo not drawn)
50 to 54 | CSc1ccc(C=O)cc1OC(C)C
42 to 43 | CCOC(=O)C1COc2c(C(=O)c3ccccc3)cccc21 (stereo not drawn)
204 | Cc1cccc(COc2ccc(-c3ccc(C(=O)NC(Cc4ccccc4)C(=O)O)cc3)cc2)c1 (stereo not drawn)
164 to 165 | Cc1ccc(-n2nccc2-c2nn(-c3cccc(C(F)(F)F)c3)ccc2=O)cc1
40 to 41 | O=C(O)CCCCCCCCCCc1ccco1

melting point [°C] | Compound
102 to 104 | CNC(=O)n1nc(Oc2ccc(C(F)(F)F)cc2[N+](=O)[O-])cc1C(F)(F)F
128 to 130 | CCC#COc1ccc(S(=O)(=O)NC(CSC)C(=O)NO)cc1 (stereo not drawn)
178 to 180 | COC(=O)c1ccccc1S(=O)(=O)NC(=O)Nc1nc(COc2ccccc2)cc(OC)n1
183 to 185 | O=c1c2cc(F)c(N3CCCC3)nc2n(-c2ccc(F)cc2F)c(=O)n1OCc1ccccc1
> 300 | Nc1ncc2cc(-c3c(F)cccc3F)c(N)nc2n1
102 to 104 | COC(=O)c1ccc(C(CCN(C)C)c2ncc[nH]2)cc1 (stereo not drawn)
160 to 161 | CCCc1nn(C)c2c(=S)[nH]c(-c3ccccc3OC)nc12
142 to 144 | CS(=O)(=O)c1ccc(-c2cnn(-c3ccc(F)cc3)c(=O)c2COc2cccc(F)c2)cc1
148 to 150 | COC(=O)COc1ccc(-c2cccc3sc4ccccc4c23)cc1
85 to 95 | Cc1cc(OCCNC(=O)C2Cc3ccccc3N2S(=O)(=O)c2ccc(-c3ccccc3C(F)(F)F)cc2)ccc1CC(=O)O (stereo not drawn)
58 | COc1ccccc1CN[C@H]1CCCN(C)[C@H]1c1ccccc1 (relative stereo)
134 to 136 | CCc1ccc(C2=NC(C)(C(C)C)C(=O)N2CC(=O)O)nc1 (stereo not drawn)
158 | Nc1cc(CO)cc([N+](=O)[O-])c1-c1ccc(O)cc1
89 to 91 | COc1ccc2cc(-c3cccnc3)ccc2n1
149 to 150 | N#Cc1cc(-c2ccccc2)cnc1Cl
104 to 105 | C#CCOCC1=C(C(=O)OCC)C(c2cccc(Cl)c2Cl)C(C(=O)OC)=C(C)N1 (stereo not drawn)
51 | N#Cc1cc(F)ccc1Oc1cccc(C(F)(F)F)c1
125 to 126 | NC(=O)C(CCCCCc1ccc(Cl)cc1)C(=O)O (stereo not drawn)
189 | O=c1cc(C(F)(F)F)[nH]c(=O)n1-c1ccc(Cl)cc1F
250 to 253 | Cc1cc2c(s1)Oc1ccc(Cl)cc1NC2=O
75 to 78 | ON=C(CCC(CN1CCN(c2ncccn2)CC1)C(=NO)c1ccccc1)c1ccccc1 (stereo not drawn)
106 to 107 | Cc1cc(C)c(C(C)(C)O)c(C)c1
125 to 126 | CCCOC(=O)Nc1nc(=O)n(C2OC(C)C(O)C2O)cc1F (stereo not drawn)
248 to 253 | O=c1nc(-c2ccc(F)cc2)c2c([nH]1)CCCC2

Compound | melting point [°C]
COCCOc1ccc(C#CC2(O)CN3CCC2CC3)cc1Cl (stereo not drawn) | 138 to 139
